Columns and labels:
[1] = system: PAI-1; assay: PAI-1 induction in BEAS-2B, SAEC and NHBE cells; format: cell-based, human; conditions: SB203580
Text: J. Physiol. Lung Cell. Mol. Physiol. 281:L616-23 (2001), and Hasegawa et al., “Decreased Intracellular Iron Availability Suppresses Epithelial Cell Surface Plasmin Generation. Transcriptional and Post-transcriptional Effects on u-PA and PAI-1 Expression,” Am. J. Respir. Cell. Mol. Biol. 21:275-82 (1999), each of which is hereby incorporated by reference in its entirety. Wild type and Cyld-deficient mouse embryonic fibroblasts were obtained from E13 embryos and maintained in DMEM supplemented with 10% FBS (Invitrogen). […]
Cells were cultured on 12-well plates and transfected with various expression plasmids, as described in Examples 1-15 and the Brief Description of the Drawings. […] After 5 hours, the cells were harvested for either RNA extraction and real-time quantitative PCR analysis as described in the Examples or luciferase assay. […]
Total RNA was isolated with TRIzol reagent (Invitrogen) by following the manufacturer's instructions. Real-Time Quantitative RT-PCR analysis of PAI-1 and CYLD were performed as described in Jono et al., “NF-κB Is Essential for Induction of CYLD, the Negative Regulator of NF-κB: Evidence for a Novel Inducible Autoregulatory Feedback Pathway,” J. Biol. Chem. 279:36171-4 (2004), which is hereby incorporated by reference in its entirety. […]

[2] = system: PAI-1; assay: PAI-1 mRNA expression in A549 cells (Q-PCR); format: cell-based, human; conditions: SB203580 pretreatment (1 μM, 2 hours)
Protocol: Cells were cultured on 12-well plates and transfected with various expression plasmids, as described in Examples 1-15 and the Brief Description of the Drawings. All transient transfections were carried out in triplicate using TransIT-LT1 reagent (Minis) following the manufacturer's instructions. […] Transfected cells were pretreated with or without chemical inhibitors including SB203580 (1 μM) for 2 hours. S.p. or pneumolysin was then added to the transfected cells 42 hours after transfection. After 5 hours, the cells were harvested for either RNA extraction and real-time quantitative PCR analysis as described in the Examples or luciferase assay. […]
Total RNA was isolated with TRIzol reagent (Invitrogen) by following the manufacturer's instructions. Real-Time Quantitative RT-PCR analysis of PAI-1 and CYLD were performed as described in Jono et al., “NF-κB Is Essential for Induction of CYLD, the Negative Regulator of NF-κB: Evidence for a Novel Inducible Autoregulatory Feedback Pathway,” J. Biol. Chem. 279:36171-4 (2004), which is hereby incorporated by reference in its entirety. […] Relative quantity of PAI-1 mRNA was obtained using comparative CT Method and was normalized by Cyclophilin and GAPDH as an endogenous control for human and mouse, respectively (Applied Biosystems).

## C[S+]([O-])c1ccc(-c2nc(-c3ccncc3)c(-c3ccc(F)cc3)[nH]2)cc1 (centres unmarked) [SB203580]
[1]
  PAI-1 induction by S. pneumoniae WT and PLY: inhibited PAI-1 induction
[2]
  S. pneumoniae-induced PAI-1 expression: greatly reduced S. pneumoniae-induced PAI-1 expression
